Laboratory results taken from ChEMBL document CHEMBL3045951, “Toxicities and sublethal effects of seven neonicotinoid insecticides on survival, growth and reproduction of imidacloprid-resistant cotton aphid, Aphis gossypii” (2011).
≈ marks a conversion by molar mass, not a printed value.

Key:
Type in all cases: functional
Aphis gossypii [1] = assay: Insecticidal activity against imidacloprid-resistant Aphis gossypii (cotton aphid) in cotton leaves assessed as longevity at LC20 concentration
Aphis gossypii [2] = test system: Aphis gossypii
Description: Insecticidal activity against imidacloprid-resistant Aphis gossypii (cotton aphid) in cotton leaves assessed as inhibition of honeydew excretion at LC20 concentration measured after 72 hr by dipping method

Aphis gossypii [3] = assay: Insecticidal activity against cotton aphid Aphis gossypii F33 (cotton aphid) in cotton leaves assessed as mortality measured after 48 hr by dipping method
Aphis gossypii [4] = assay: Insecticidal activity against cotton aphid Aphis gossypii F27 (cotton aphid) in cotton leaves assessed as mortality measured after 48 hr by dipping method
Aphis gossypii [5] = assay: Insecticidal activity against cotton aphid Aphis gossypii F24 (cotton aphid) in cotton leaves assessed as mortality measured after 48 hr by dipping method
Aphis gossypii [6] = assay: Insecticidal activity against cotton aphid Aphis gossypii F21 (cotton aphid) in cotton leaves assessed as mortality measured after 48 hr by dipping method
Aphis gossypii [7] = assay: Insecticidal activity against cotton aphid Aphis gossypii F15 (cotton aphid) in cotton leaves assessed as mortality measured after 48 hr by dipping method
Aphis gossypii [8] = assay: Insecticidal activity against cotton aphid Aphis gossypii F18 (cotton aphid) in cotton leaves assessed as mortality measured after 48 hr by dipping method
Aphis gossypii [9] = assay: Insecticidal activity against cotton aphid Aphis gossypii F12 (cotton aphid) in cotton leaves assessed as mortality measured after 48 hr by dipping method
Aphis gossypii [10] = assay: Insecticidal activity against cotton aphid Aphis gossypii F6 (cotton aphid) in cotton leaves assessed as mortality measured after 48 hr by dipping method
Aphis gossypii [11] = assay: Insecticidal activity against cotton aphid Aphis gossypii F0 (cotton aphid) in cotton leaves assessed as mortality measured after 48 hr by dipping method
Aphis gossypii [12] = assay: Insecticidal activity against imidacloprid-resistant Aphis gossypii (cotton aphid) in cotton leaves assessed as mortality measured after 72 hr by dipping method
Aphis gossypii [13] = assay: Resistance ratio, LC50 for Aphis gossypii RF45 (cotton aphid) to LC50 for Aphis gossypii SS
Aphis gossypii [14] = assay: Insecticidal activity against imidacloprid-resistant Aphis gossypii RF45 (cotton aphid) in cotton leaves assessed as mortality measured after 48 hr by dipping method
Aphis gossypii [15] = assay: Insecticidal activity against Aphis gossypii SS (cotton aphid) in cotton leaves assessed as mortality measured after 48 hr by dipping method
Aphis gossypii [16] = assay: Resistance ratio, LC50 for Aphis gossypii F42 (cotton aphid) to LC50 for Aphis gossypii F0
Aphis gossypii [17] = assay: Resistance ratio, LC50 for Aphis gossypii F45 (cotton aphid) to LC50 for Aphis gossypii F0
Aphis gossypii [18] = assay: Resistance ratio, LC50 for Aphis gossypii F39 (cotton aphid) to LC50 for Aphis gossypii F0
Aphis gossypii [19] = assay: Resistance ratio, LC50 for Aphis gossypii F36 (cotton aphid) to LC50 for Aphis gossypii F0
Aphis gossypii [20] = assay: Resistance ratio, LC50 for Aphis gossypii F30 (cotton aphid) to LC50 for Aphis gossypii F0
Aphis gossypii [21] = assay: Resistance ratio, LC50 for Aphis gossypii F33 (cotton aphid) to LC50 for Aphis gossypii F0
Aphis gossypii [22] = assay: Resistance ratio, LC50 for Aphis gossypii F27 (cotton aphid) to LC50 for Aphis gossypii F0
Aphis gossypii [23] = assay: Resistance ratio, LC50 for Aphis gossypii F21 (cotton aphid) to LC50 for Aphis gossypii F0
Aphis gossypii [24] = assay: Resistance ratio, LC50 for Aphis gossypii F24 (cotton aphid) to LC50 for Aphis gossypii F0
Aphis gossypii [25] = assay: Resistance ratio, LC50 for Aphis gossypii F18 (cotton aphid) to LC50 for Aphis gossypii F0
Aphis gossypii [26] = assay: Resistance ratio, LC50 for Aphis gossypii F15 (cotton aphid) to LC50 for Aphis gossypii F0
Aphis gossypii [27] = assay: Resistance ratio, LC50 for Aphis gossypii F12 (cotton aphid) to LC50 for Aphis gossypii F0
Aphis gossypii [28] = assay: Resistance ratio, LC50 for Aphis gossypii F9 (cotton aphid) to LC50 for Aphis gossypii F0
Aphis gossypii [29] = assay: Resistance ratio, LC50 for Aphis gossypii F6 (cotton aphid) to LC50 for Aphis gossypii F0
Aphis gossypii [30] = assay: Resistance ratio, LC50 for Aphis gossypii F3 (cotton aphid) to LC50 for Aphis gossypii F0
Aphis gossypii [31] = assay: Insecticidal activity against cotton aphid Aphis gossypii F9 (cotton aphid) in cotton leaves assessed as mortality measured after 48 hr by dipping method
Aphis gossypii [32] = assay: Insecticidal activity against cotton aphid Aphis gossypii F3 (cotton aphid) in cotton leaves assessed as mortality measured after 48 hr by dipping method
Aphis gossypii [33] = assay: Insecticidal activity against cotton aphid Aphis gossypii F45 (cotton aphid) in cotton leaves assessed as mortality measured after 48 hr by dipping method
Aphis gossypii [34] = assay: Insecticidal activity against cotton aphid Aphis gossypii F42 (cotton aphid) in cotton leaves assessed as mortality measured after 48 hr by dipping method
Aphis gossypii [35] = assay: Insecticidal activity against cotton aphid Aphis gossypii F36 (cotton aphid) in cotton leaves assessed as mortality measured after 48 hr by dipping method
Aphis gossypii [36] = assay: Insecticidal activity against cotton aphid Aphis gossypii F39 (cotton aphid) in cotton leaves assessed as mortality measured after 48 hr by dipping method
Aphis gossypii [37] = assay: Insecticidal activity against cotton aphid Aphis gossypii F30 (cotton aphid) in cotton leaves assessed as mortality measured after 48 hr by dipping method

O=[N+]([O-])/N=C1\NCCN1Cc1ccc(Cl)nc1 [IMIDACLOPRID]
Survival (Aphis gossypii [1]): 13.6 days | inhibition (INH) (Aphis gossypii [2]): 23.4% | LC50 (Aphis gossypii [3]): 10.7 microg/mL2 | LC50 (Aphis gossypii [4]): 7.1 microg/mL2 | LC50 (Aphis gossypii [5]): 6.35 microg/mL2 | LC50 (Aphis gossypii [6]): 5.17 microg/mL2 | LC50 (Aphis gossypii [7]): 3.34 microg/mL2 | LC50 (Aphis gossypii [8]): 4.2 microg/mL2 | LC50 (Aphis gossypii [9]): 2.41 microg/mL2 | LC50 (Aphis gossypii [10]): 1.23 microg/mL2 | LC50 (Aphis gossypii [11]): 0.32 microg/mL2 | LC20 (Aphis gossypii [12]): 10.6 µg/mL (≈ 41.5 µM) | RatioLC50 (Aphis gossypii [13]): 41.7 | LC50 (Aphis gossypii [14]): 13.5 microg/mL2 | LC50 (Aphis gossypii [15]): 0.32 microg/mL2 | RatioLC50 (Aphis gossypii [16]): 41.1 | RatioLC50 (Aphis gossypii [17]): 41.7 | RatioLC50 (Aphis gossypii [18]): 39.3 | RatioLC50 (Aphis gossypii [19]): 38.2 | RatioLC50 (Aphis gossypii [20]): 28.5 | RatioLC50 (Aphis gossypii [21]): 33.4 | RatioLC50 (Aphis gossypii [22]): 22.2 | RatioLC50 (Aphis gossypii [23]): 16.2 | RatioLC50 (Aphis gossypii [24]): 19.8 | RatioLC50 (Aphis gossypii [25]): 13.1 | RatioLC50 (Aphis gossypii [26]): 10.4 | RatioLC50 (Aphis gossypii [27]): 7.53 | RatioLC50 (Aphis gossypii [28]): 4.81 | RatioLC50 (Aphis gossypii [29]): 3.84 | RatioLC50 (Aphis gossypii [30]): 1.72 | LC50 (Aphis gossypii [31]): 1.54 microg/mL2 | LC50 (Aphis gossypii [32]): 0.55 microg/mL2 | LC50 (Aphis gossypii [33]): 13.5 microg/mL2 | LC50 (Aphis gossypii [34]): 13.2 microg/mL2 | LC50 (Aphis gossypii [35]): 12.2 microg/mL2 | LC50 (Aphis gossypii [36]): 12.6 microg/mL2 | LC50 (Aphis gossypii [37]): 9.12 microg/mL2

CCN(Cc1ccc(Cl)nc1)/C(=C/[N+](=O)[O-])NC [NITENPYRAM]
Survival (Aphis gossypii [1]): 8.42 days | inhibition (INH) (Aphis gossypii [2]): 28.3% | LC20 (Aphis gossypii [12]): 10.5 µg/mL (≈ 38.8 µM) | RatioLC50 (Aphis gossypii [13]): 5.78 | LC50 (Aphis gossypii [14]): 14.3 microg/mL2 | LC50 (Aphis gossypii [15]): 2.47 microg/mL2

C/C(=N\C#N)N(C)Cc1ccc(Cl)nc1 [ACETAMIPRID]
Survival (Aphis gossypii [1]): 11.4 days | inhibition (INH) (Aphis gossypii [2]): 40.2% | LC20 (Aphis gossypii [12]): 8.36 µg/mL (≈ 37.5 µM) | RatioLC50 (Aphis gossypii [13]): 4.52 | LC50 (Aphis gossypii [14]): 12.4 microg/mL2 | LC50 (Aphis gossypii [15]): 2.73 microg/mL2

CN/C(=N\[N+](=O)[O-])NCc1cnc(Cl)s1 [CLOTHIANIDINE]
Survival (Aphis gossypii [1]): 6.61 days | inhibition (INH) (Aphis gossypii [2]): 72.7% | LC20 (Aphis gossypii [12]): 1.23 µg/mL (≈ 4.93 µM) | RatioLC50 (Aphis gossypii [13]): 1.2 | LC50 (Aphis gossypii [14]): 2.18 microg/mL2 | LC50 (Aphis gossypii [15]): 1.82 microg/mL2

CN/C(=N/CC1CCOC1)N[N+](=O)[O-] (stereo not drawn) [DINOTEFURAN]
Survival (Aphis gossypii [1]): 2.95 days | inhibition (INH) (Aphis gossypii [2]): 82.2% | LC20 (Aphis gossypii [12]): 0.88 µg/mL (≈ 4.35 µM) | RatioLC50 (Aphis gossypii [13]): 1.07 | LC50 (Aphis gossypii [14]): 1.29 microg/mL2 | LC50 (Aphis gossypii [15]): 1.2 microg/mL2

CN1COCN(Cc2cnc(Cl)s2)/C1=N\[N+](=O)[O-] [THIAMETHOXAM]
Survival (Aphis gossypii [1]): 6.78 days | inhibition (INH) (Aphis gossypii [2]): 73.7% | LC20 (Aphis gossypii [12]): 0.96 µg/mL (≈ 3.29 µM) | RatioLC50 (Aphis gossypii [13]): 1.06 | LC50 (Aphis gossypii [14]): 1.69 microg/mL2 | LC50 (Aphis gossypii [15]): 1.6 microg/mL2

N#C/N=C1\SCCN1Cc1ccc(Cl)nc1 [THIACLOPRID]
Survival (Aphis gossypii [1]): 10.6 days | inhibition (INH) (Aphis gossypii [2]): 36.9% | LC20 (Aphis gossypii [12]): 5.45 µg/mL (≈ 21.6 µM) | RatioLC50 (Aphis gossypii [13]): 3.68 | LC50 (Aphis gossypii [14]): 8.69 microg/mL2 | LC50 (Aphis gossypii [15]): 2.36 microg/mL2
